# Data: publication PMC5504357, “Antifungal Potential of Copper(II), Manganese(II) and Silver(I) 1,10-Phenanthroline Chelates Against Multidrug-Resistant Fungal Species Forming the Candida haemulonii Complex: Impact on the Planktonic and Biofilm Lifestyles” (Frontiers in Microbiology, 2017)
# Like-named read-outs stand apart in the source and are kept apart here.
# What was measured:
# [1] = system: Candida haemulonii var. vulnera; assay: Planktonic growth, broth microdilution (CLSI M27-A3), MIC; format: cell-based
# Source text: (§1) Three clinical isolates of each species that form the C. haemulonii complex were used in this study: C. haemulonii (LIPCh4 from finger nail, LIPCh7 from toe nail, and LIPCh12 from blood), C. duobushaemulonii (LIPCh1 from finger nail, LIPCh6 from toe nail, and LIPCh8 from blood) and C. haemulonii var. vulnera (LIPCh5 from toe nail, LIPCh9 from urine, and LIPCh11 from blood) (Ramos et al., [2015]). The fungal isolates were identified by the automatized system VITEK® 2 and then characterized by ITS1-5.8S-ITS2 gene sequencing (Ramos et al., [2015]). Fungal cells were cultured in Sabouraud-dextrose medium under constant agitation (130 rpm) for 48 h at 37°C. Human lung adenocarcinoma A549 cells were maintained in culture flasks containing DMEM medium supplemented with 10% fetal bovine serum at 37°C in an atmosphere of 5% CO2.
# (§2) Susceptibility profile assays were performed in accordance with the broth microdilution protocol described in the document M27-A3 published by the Clinical and Laboratory Standards Institutes (CLSI, [2008]). Samples of the test chelates were dissolved in DMSO (500 μL) and then serially diluted in a 96-well plate containing RPMI 1640 (Sigma-Aldrich, USA) to give the concentration range of 0.0625-32 mg/L. Aqueous solutions of the metal-free phen ligand and the simple metal salts, MnCl2, CuCl2, and AgNO3, were also screened over the same concentration range. Caspofungin (Sigma-Aldrich) was used as a classical antifungal agent able to block the growth of all clinical isolates of C. haemulonii species as previously reported by our research group (Ramos et al., [2015]). Water dilutions containing DMSO concentrations corresponding to those used to prepare the drug solutions were assessed in parallel. Untreated and compound-treated fungal cells were incubated at 37°C for 48 h and the minimal inhibitory concentration (MIC) was established as the lowest compound concentration where no cellular growth could be detected by visual inspection in accordance to the CLSI recommendation. The geometric mean of the MIC values (GM-MIC) of each compound against all the fungal isolates was calculated using the software, Microsoft Office Excel 2013.
# Candida duobushaemulonii = assay: as above; format: cell-based
# Source text: as §1, §2
# Candida haemulonii = assay: as above; format: cell-based
# Source text: as §1, §2
# C. haemulonii complex = assay: Planktonic growth, overall across all nine isolates; format: cell-based, Candida haemulonii complex; conditions: for MIC / Overall GM-MIC: geometric mean across all nine strains; for MIC: read-out: Overall GM-MIC; for effect on planktonic fungal growth/viability (in words): nine clinical isolates, 0.0625-32 mg/L
# Source text: as §1, §2
# A549 cells = assay: Mammalian cell toxicity (MTT assay) and selectivity index; format: cell-based, Human
# Source text: as §1
# The cytotoxicity was evaluated using the MTT [3-(4,5-dimethylthiazol-2-yl)-2,5-diphenyl tetrazolium bromide] (Sigma-Aldrich) assay (Mosmann, [1983]). A549 cells (10^4) were seeded into tissue culture plates (TPP, Switzerland) and cultured for 24 h at 37°C in a 5% CO2 in order to obtain cellular confluence. The wells were then washed twice with DMEM to remove non-adherent cells and the test compounds were added (in concentrations ranging from 0.0313 to 512 μg/mL) to plates containing DMEM, followed by a 48 h incubation period under the same conditions mentioned above. The cellular viability was evaluated by adding MTT to each well and incubating the plates in the dark for 3 h, allowing the viable cells containing active mitochondrial dehydrogenase enzymes to metabolize MTT-tetrazolium salt into purple formazan. The formazan crystals were then dissolved in DMSO (100 μL) and the absorbance (450 nm) measured using a Thermomax Molecular Device microplate reader. The concentration capable of reducing cellular viability by 50% (CC50) was calculated, and the selectivity index (SI) determined using the following equation: A549 CC50/C. haemulonii complex GM-MIC.
# [2] = isolate LIP Ch1, planktonic, 48 h, 37°C
# [3] = geometric mean of three C. haemulonii var. vulnera isolates
# [4] = isolate LIP Ch5, planktonic, 48 h, 37°C
# [5] = isolate LIP Ch9, planktonic, 48 h, 37°C
# [6] = isolate LIP Ch11, planktonic, 48 h, 37°C
# [7] = geometric mean of three C. duobushaemulonii isolates
# [8] = isolate LIP Ch6, planktonic, 48 h, 37°C
# [9] = isolate LIP Ch8, planktonic, 48 h, 37°C
# [10] = geometric mean of three C. haemulonii isolates
# [11] = isolate LIP Ch4, planktonic, 48 h, 37°C
# [12] = isolate LIP Ch7, planktonic, 48 h, 37°C
# [13] = isolate LIP Ch12, planktonic, 48 h, 37°C
SMILES,MIC (Candida duobushaemulonii; [2]) [µg/mL],"A549 (CC50) (A549 cells; MTT, 48 h incubation) [µg/mL]","GM-MIC [1, 3] [µg/mL]","MIC [1, 4] [µg/mL]","MIC [1, 5] [µg/mL]","MIC [1, 6] [µg/mL]",GM-MIC (Candida duobushaemulonii; [7]) [µg/mL],MIC (Candida duobushaemulonii; [8]) [µg/mL],MIC (Candida duobushaemulonii; [9]) [µg/mL],GM-MIC (Candida haemulonii; [10]) [µg/mL],MIC (Candida haemulonii; [11]) [µg/mL],MIC (Candida haemulonii; [12]) [µg/mL],MIC (Candida haemulonii; [13]) [µg/mL],Overall GM-MIC (C. haemulonii complex) [µg/mL],effect on planktonic fungal growth/viability (in words) (C. haemulonii complex),A549 (CC50) (A549 cells) [µg/mL],MIC (C. haemulonii complex; in μM) [µM],further results
"CC[C@H](C)C[C@H](C)CCCCCCCCC(=O)N[C@H]1C[C@@H](O)[C@@H](NCCN)NC(=O)[C@@H]2[C@@H](O)CCN2C(=O)[C@H]([C@H](O)CCN)NC(=O)[C@H]([C@H](O)[C@@H](O)c2ccc(O)cc2)NC(=O)[C@@H]2C[C@@H](O)CN2C(=O)[C@H]([C@@H](C)O)NC1=O [Caspofungin, reference compound]",0.125,–,–,–,–,–,–,–,–,–,–,–,–,–,–,–,–,"MIC ([1]; Candidozyma haemuli, 48 h, isolate LIP Ch5, planktonic, 48 h, 37°C, read-out: MIC): 0.25 µg/mL; MIC ([1]; Candidozyma haemuli, 48 h, isolate LIP Ch9, planktonic, 48 h, 37°C, read-out: MIC): 0.25 µg/mL; MIC ([1]; Candidozyma haemuli, 48 h, isolate LIP Ch11, planktonic, 48 h, 37°C, read-out: MIC): 0.5 µg/mL; MIC ([1]; Candidozyma haemuli, geometric mean of three C. haemulonii var. vulnera isolates, read-out: GM-MIC): 0.315 µg/mL; MIC (Candida duobushaemulonii; Candidozyma duobushaemuli, 48 h): 0.125 µg/mL; MIC (Candida duobushaemulonii; Candidozyma duobushaemuli, 48 h, isolate LIP Ch6, planktonic, 48 h, 37°C, read-out: MIC): 0.25 µg/mL; MIC (Candida duobushaemulonii; Candidozyma duobushaemuli, geometric mean of three C. duobushaemulonii isolates, read-out: GM-MIC): 0.157 µg/mL; MIC (Candida haemulonii; Candidozyma haemuli, 48 h): 0.125 µg/mL; MIC (Candida haemulonii; Candidozyma haemuli, 48 h, isolate LIP Ch4, planktonic, 48 h, 37°C, read-out: MIC): 0.5 µg/mL; MIC (Candida haemulonii; Candidozyma haemuli, 48 h, isolate LIP Ch7, planktonic, 48 h, 37°C, read-out: MIC): 0.25 µg/mL; MIC (Candida haemulonii; Candidozyma haemuli, geometric mean of three C. haemulonii isolates, read-out: GM-MIC): 0.25 µg/mL; MIC (C. haemulonii complex; Candidozyma haemuli, in μM): 0.18 µM; MIC (C. haemulonii complex; Candidozyma haemuli): 0.23 µg/mL"
"[Cl][Cu][Cl] [CuCl2, reference compound]",>32,123.68,>32,>32,>32,>32,>32,>32,>32,>32,>32,>32,>32,> 32,no appreciable effects,–,–,–
"[Cl][Mn][Cl] [MnCl2, reference compound]",>32,133.76,>32,>32,>32,>32,>32,>32,>32,>32,>32,>32,>32,> 32,no appreciable effects,–,–,–
"O.O.O=C([O-])c1ccccc1C(=O)[O-].[Cu+2].c1cnc2c(c1)ccc1cccnc12 [compound 1, [Cu(ph)(phen)(H2O)2]]",>32,–,>32,>32,>32,>32,>32,>32,>32,>32,>32,>32,>32,> 32,–,0.53,> 72,–
"CCO.CCO.O.O.O.O=C([O-])c1ccccc1C(=O)[O-].[Cu+2].c1cnc2c(c1)ccc1cccnc12.c1cnc2c(c1)ccc1cccnc12 [compound 2, [Cu(ph)(phen)2].3H2O.2EtOH]",>32,–,>32,>32,>32,>32,>32,>32,>32,>32,>32,>32,>32,> 32,–,1.93,> 43.52,–
"CCO.CCO.O=C([O-])c1ccc(C(=O)[O-])cc1.O=C([O-])c1ccc(C(=O)[O-])cc1.[Cu+2].[Cu+2].c1cnc2c(c1)ccc1cccnc12.c1cnc2c(c1)ccc1cccnc12.c1cnc2c(c1)ccc1cccnc12.c1cnc2c(c1)ccc1cccnc12 [compound 4, [{Cu(phen)2}2(terph)](terph).13.5H2O.2EtOH]",>32,3.86,32,32,32,32,>32,>32,>32,>32,>32,>32,>32,> 32,–,–,> 21.92,–
